# Columns and labels:
# Her2 = experiment: Degradation of Her2 in BT-474 cells (Method 1, Western blot); assay type: cell-based, Human; settings: overnight, FIG. 2
# Procedure: Human high-Her2 breast carcinoma BT474 (HTB-20), SK-BR-3 (HTB-30) and MCF-7 breast carcinoma (HTB-22) from American Type Culture Collection, Va., USA were grown in Dulbecco's modified Eagle's medium with 4 mM L-glutamine and antibiotics (100 IU/ml penicillin and 100 ug/ml streptomycine; GibcoBRL). To obtain exponential cell growth, cells were trypsinized, counted and seeded at a cell density of 0.5×10^6 cells/ml regularly, every 3 days. All experiments were performed on day 1 after cell passage.
# BT-474 cells were treated with 0.5 μM, 2 μM, or 5 μM of 17AAG (a positive control) or 0.5 μM, 2 μM, or 5 μM of Compound 108 or Compound 49 overnight in DMEM medium. After treatment, each cytoplasmic sample was prepared from 1×10^6 cells by incubation of cell lysis buffer (#9803, cell Signaling Technology) on ice for 10 minutes. The resulting supernatant used as the cytosol fractions were dissolved with sample buffer for SDS-PAGE and run on a SDS-PAGE gel, blotted onto a nitrocellulose membrane by using semi-dry transfer. Non-specific binding to nitrocellulose was blocked with 5% skim milk in TBS with 0.5% Tween at room temperature for 1 hour, then probed with anti-Her2/ErB2 mAb (rabbit IgG, #2242, Cell Signaling) and anti-Tubulin (T9026, Sigma) as, housekeeping control protein. HRP-conjugated goat anti-rabbit IgG (H+L) and HRP-conjugated horse anti-mouse IgG (H+L) were used as secondary Ab (#7074, #7076, Cell Signaling) and LumiGLO reagent, 20× Peroxide (#7003, Cell Signaling) was used for visualization.
# Hsp90 protein = experiment: Malachite Green Assay of ATPase activity of Hsp90 protein; assay type: biochemical; settings: 37° C. for 4 hours, FIG. 1
# Procedure: Hsp90 protein was obtained from Stressgen (Cat#SPP-770). Assay buffer: 100 mM Tris-HCl, Ph7.4, 20 mM KCl, 6 mM MgCl2. […] Malachite green reagent was added to the reaction. […] The plate was read by an ELISA reader with an absorbance at 620 nm.
inhibition of ATPase activity of Hsp90 (Hsp90 protein; 4 μM),SMILES,degradation of Her2 (Her2; 0.5 μM),degradation of Her2 (Her2; 2 μM),degradation of Her2 (Her2; 5 μM),inhibition of ATPase activity of Hsp90 (Hsp90 protein; 40 μM)
–,"CCc1cc(-c2nnc(S)n2-c2cccc3ccccc23)c(O)cc1O [Compound 49, 3-(2,4-Dihydroxy-5-ethyl-phenyl)-4-(naphthalen-1-yl)-5-mercapto-triazole]",partial degradated,complete degradation,complete degradation,–
significant inhibition,"Oc1ccc(-c2nnc(S)n2-c2cccc3ccccc23)c(O)c1 [Compound 108, 3-(2,4-Dihydroxy-phenyl)-4-(naphthalen-1-yl)-5-mercapto-triazole]",partially degradated,partially degradated,almost completely degraded,even greater inhibition of ATPase activity of Hsp90 than geldanamycin
